In ChEMBL document CHEMBL1141733, “Cardiovascular effects of aspidofractinine-type alkaloids from Kopsia” (1998):
The source made the active and inactive calls. No cut-off for these calls is given here.

Tests used:
Rattus norvegicus [1] = assay: Antihypertensive activity in iv dosed anesthetized SHR rat assessed as decrease in basal mean arterial blood pressure; format: functional, organism-based; conditions: Artery
Rattus norvegicus [2] = assay: Antihypertensive activity in iv dosed anesthetized SHR rat assessed as concomitant fall in heart rate; format: functional, organism-based
Rattus norvegicus [3] = assay: Increase in basal mean arterial blood pressure anesthetized SHR rat at 0.2 mg/kg, iv; format: functional, organism-based; design: dose 0.2 mg/kg
Rattus norvegicus [4] = assay: Increase in basal mean arterial blood pressure anesthetized SHR rat at 0.5 mg/kg, iv; format: functional, organism-based; design: dose 0.5 mg/kg
Rattus norvegicus [5] = assay: Increase in basal mean arterial blood pressure anesthetized SHR rat at 1 mg/kg, iv; format: functional, organism-based; design: dose 1 mg/kg
Rattus norvegicus [6] = assay: Increase in basal mean arterial blood pressure anesthetized SHR rat at 2 mg/kg, iv; format: functional, organism-based; design: dose 2 mg/kg
Rattus norvegicus [7] = assay: Increase in basal mean arterial blood pressure anesthetized SHR rat at 5 mg/kg, iv; format: functional, organism-based; design: dose 5 mg/kg
Rattus norvegicus [8] = assay: Increase in basal mean arterial blood pressure anesthetized SHR rat at 10 mg/kg, iv; format: functional, organism-based; design: dose 10 mg/kg
Rattus norvegicus [9] = assay: Antihypertensive activity in anesthetized SHR rat assessed as decrease in heart rate at 0.2 mg/kg, iv; format: functional, organism-based; design: dose 0.2 mg/kg
Rattus norvegicus [10] = assay: Antihypertensive activity in anesthetized SHR rat assessed as decrease in heart rate at 0.5 mg/kg, iv; format: functional, organism-based; design: dose 0.5 mg/kg
Rattus norvegicus [11] = assay: Antihypertensive activity in anesthetized SHR rat assessed as decrease in heart rate at 1 mg/kg, iv; format: functional, organism-based; design: dose 1 mg/kg
Rattus norvegicus [12] = assay: Antihypertensive activity in anesthetized SHR rat assessed as decrease in heart rate at 2 mg/kg, iv; format: functional, organism-based; design: dose 2 mg/kg
Rattus norvegicus [13] = assay: Antihypertensive activity in anesthetized SHR rat assessed as decrease in heart rate at 5 mg/kg, iv; format: functional, organism-based; design: dose 5 mg/kg
Rattus norvegicus [14] = assay: (§1) Antihypertensive activity in anesthetized SHR rat assessed as decrease in heart rate at 10 mg/kg, iv; format: functional, organism-based; design: dose 10 mg/kg
Rattus norvegicus [15] = assay: Antihypertensive activity in anesthetized SHR rat assessed as decrease in basal mean arterial blood pressure at 10 mg/kg, iv pretreated with hexamethonium for 10 mins; format: functional, organism-based; design: dose 10 mg/kg; conditions: Artery
Rattus norvegicus [16] = assay: Antihypertensive activity in anesthetized SHR rat assessed as decrease in heart rate at 10 mg/kg, iv pretreated with hexamethonium for 10 mins; format: functional, organism-based; design: dose 10 mg/kg
Rattus norvegicus [17] = assay: Antihypertensive activity in anesthetized SHR rat assessed as decrease in basal mean arterial blood pressure at 2 mg/kg, iv after 24 to 26 seconds; format: functional, Artery
Rattus norvegicus [18] = assay: Antihypertensive activity in anesthetized SHR rat assessed as decrease in heart rate at 2 mg/kg, iv after 24 to 26 seconds; format: functional
Rattus norvegicus [19] = assay: Antihypertensive activity in anesthetized SHR rat assessed as basal mean arterial blood pressure at 2 mg/kg, iv after 10 mins; format: functional, Artery
Rattus norvegicus [20] = assay: Antihypertensive activity in anesthetized SHR rat assessed as heart rate at 2 mg/kg, iv after 10 mins; format: functional
Rattus norvegicus [21] = assay: Antihypertensive activity in anesthetized SHR rat assessed as decrease in basal mean arterial blood pressure at 10 mg/kg, iv; format: functional, Artery
Rattus norvegicus [22] = assay: as §1; format: functional
Rattus norvegicus [23] = assay: Antihypertensive activity in anesthetized SHR rat assessed as decrease in basal mean arterial blood pressure at 10 mg/kg, iv pretreated with phentolamine for 10 mins; format: functional, Artery
Rattus norvegicus [24] = assay: Antihypertensive activity in anesthetized SHR rat assessed as decrease in heart rate at 10 mg/kg, iv pretreated with phentolamine for 10 mins; format: functional
Rattus norvegicus [25] = assay: Antihypertensive activity in anesthetized SHR rat assessed as decrease in basal mean arterial blood pressure at 20 mg/kg, iv after 1 to 1.5 mins; format: functional, Artery
Rattus norvegicus [26] = assay: Antihypertensive activity in anesthetized SHR rat assessed as decrease in heart rate at 20 mg/kg, iv after 1 to 1.5 mins; format: functional
Rattus norvegicus [27] = assay: Antihypertensive activity in anesthetized SHR rat assessed as decrease in basal mean arterial blood pressure at 20 mg/kg, iv after 10 mins; format: functional, Artery
Rattus norvegicus [28] = assay: Antihypertensive activity in anesthetized SHR rat assessed as decrease in heart rate at 20 mg/kg, iv after 10 mins; format: functional
Rattus norvegicus [29] = assay: Antihypertensive activity in anesthetized SHR rat assessed as hypotensive response lasting time at 10 mg/kg, iv; format: functional
Rattus norvegicus [30] = assay: Antihypertensive activity in iv dosed anesthetized WKY rat assessed as hypotensive activity; format: functional, organism-based
Rattus norvegicus [31] = assay: Antihypertensive activity in anesthetized SHR rat assessed as decrease in basal mean arterial blood pressure at 10 mg/kg, iv pretreated with atropine for 10 mins; format: functional, Artery
Rattus norvegicus [32] = assay: Antihypertensive activity in anesthetized SHR rat assessed as decrease in heart rate at 10 mg/kg, iv pretreated with atropine for 10 mins; format: functional
Rattus norvegicus [33] = assay: Antihypertensive activity in anesthetized SHR rat assessed as decrease in basal mean arterial blood pressure at 3 mg/kg, iv; format: functional, Artery
Rattus norvegicus [34] = assay: Antihypertensive activity in anesthetized SHR rat assessed as increase in heart rate at 3 mg/kg, iv; format: functional
Rattus norvegicus [35] = assay: Antihypertensive activity in anesthetized SHR rat assessed as decrease in basal mean arterial blood pressure at 3 mg/kg, iv after 10 mins; format: functional, Artery
Rattus norvegicus [36] = assay: Antihypertensive activity in anesthetized SHR rat assessed as decrease in heart rate at 3 mg/kg, iv after 10 mins; format: functional

For `COC(=O)N1c2c(OC)cccc2[C@@]23CCN4[C@@H]5C[C@@H](OC)[C@]6(CC[C@]12[C@](O)(C(=O)OC)[C@H]6O5)[C@H]43`, the Activity (Rattus norvegicus [1]) was “Dose-dependent effect”, the Activity (Rattus norvegicus [2]) was “Dose-dependent effect” and the Activity (Rattus norvegicus [3]) was “Active”. For the same compound, the Activity (Rattus norvegicus [4]) was “Active”, the Activity (Rattus norvegicus [5]) was “Active” and the Activity (Rattus norvegicus [6]) was “Active”. For the same compound, the Activity (Rattus norvegicus [7]) was “Active”, the Activity (Rattus norvegicus [8]) was “Active” and the Activity (Rattus norvegicus [9]) was “Active”. For the same compound, the Activity (Rattus norvegicus [10]) was “Active”, the Activity (Rattus norvegicus [11]) was “Active” and the Activity (Rattus norvegicus [12]) was “Active”. For the same compound, the Activity (Rattus norvegicus [13]) was “Active” and the Activity (Rattus norvegicus [14]) was “Active”.

With `COC(=O)N1c2c(OC)cccc2[C@@]23CCN4[C@H]5CC[C@]6(CC[C@]12[C@](O)(C(=O)OC)[C@@H]6O5)[C@H]43` the Activity (Rattus norvegicus [1]) was “Dose-dependent effect”, the Activity (Rattus norvegicus [2]) was “Dose-dependent effect” and the Activity (Rattus norvegicus [3]) was “Active”. The Activity (Rattus norvegicus [4]) was “Active”, the Activity (Rattus norvegicus [5]) was “Active” and the Activity (Rattus norvegicus [6]) was “Active”. The Activity (Rattus norvegicus [7]) was “Active”, the Activity (Rattus norvegicus [8]) was “Active” and the Activity (Rattus norvegicus [9]) was “Active”. The Activity (Rattus norvegicus [10]) was “Active”, the Activity (Rattus norvegicus [12]) was “Active” and the Activity (Rattus norvegicus [13]) was “Active”. For the same compound, the Activity (Rattus norvegicus [14]) was “Active”, the Activity (Rattus norvegicus [15]) was “Active” and the Activity (Rattus norvegicus [16]) was “Active”.

In the case of `CN1[C@@H]2CC[C@H]1C[C@@H](OC(=O)C(CO)c1ccccc1)C2` (stereo partly drawn) [ATROPINE], the Activity (Rattus norvegicus [17]) was 155.6 mmHg, the Activity (Rattus norvegicus [18]) was 371 bpm and the Activity (Rattus norvegicus [19]) was 160.9 mmHg. The Activity (Rattus norvegicus [20]) was 368 bpm.

With `COC(=O)N1c2c(OC)cccc2[C@@]23CCN4CCC[C@]5(CC[C@]12[C@](O)(C(=O)OC)[C@@H]5O)[C@H]43` [DIHYDROKOPSINGINE] the Activity (Rattus norvegicus [1]) was “Dose-dependent effect”, the Activity (Rattus norvegicus [2]) was “Dose-dependent effect” and the Activity (Rattus norvegicus [15]) was “inactive”. The Activity (Rattus norvegicus [16]) was “inactive”, the Activity (Rattus norvegicus [21]) was -44.7 mmHg and the Activity (Rattus norvegicus [22]) was -49.2 bpm. It also gave an Activity (Rattus norvegicus [23]) of 18.2 mmHg and an Activity (Rattus norvegicus [24]) of -52.5 bpm.

With `C[N+](C)(C)CCCCCC[N+](C)(C)C.[Cl-].[Cl-]` [HEXAMETHONIUM CHLORIDE] the Activity (Rattus norvegicus [25]) was 92 mmHg, the Activity (Rattus norvegicus [26]) was 313.6 bpm and the Activity (Rattus norvegicus [27]) was 104.8 mmHg. It also gave an Activity (Rattus norvegicus [28]) of 296.8 bpm.

For `COC(=O)N1c2ccccc2[C@]23CCN4CC=C[C@@]5(CC[C@@]12[C@@](O)(C(=O)OC)[C@H]5O)[C@@H]43` [KOPSAPORINE], the Activity (Rattus norvegicus [1]) was “Dose-dependent effect” and the Activity (Rattus norvegicus [29]) was 3.6 min.

In the case of `COC(=O)N1c2c(OC)cccc2[C@@]23CCN4CC=C[C@]5(CC[C@]12[C@](O)(C(=O)OC)[C@@H]5O)[C@H]43` [KOPSINGINE], the Activity (Rattus norvegicus [1]) was “Dose-dependent effect”, the Activity (Rattus norvegicus [30]) was “Dose-dependent effect” and the Activity (Rattus norvegicus [2]) was “Dose-dependent effect”. The Activity (Rattus norvegicus [15]) was “inactive”, the Activity (Rattus norvegicus [16]) was “inactive” and the Activity (Rattus norvegicus [31]) was -51 mmHg. The Activity (Rattus norvegicus [21]) was -68.5 mmHg, the Activity (Rattus norvegicus [32]) was -71.5 bpm and the Activity (Rattus norvegicus [22]) was -101 bpm. It also gave an Activity (Rattus norvegicus [23]) of 30.7 mmHg, an Activity (Rattus norvegicus [24]) of 66.7 bpm and an Activity (Rattus norvegicus [29]) of 3.9 min.

`Cc1ccc(N(CC2=NCCN2)c2cccc(O)c2)cc1` [PHENTOLAMINE] gave an Activity (Rattus norvegicus [33]) of 106.7 mmHg, an Activity (Rattus norvegicus [34]) of 372.5 bpm and an Activity (Rattus norvegicus [35]) of 108.4 mmHg. It also gave an Activity (Rattus norvegicus [36]) of 356.7 bpm.
